Measured values from patent publication US9006185B2, “Use of cell-permeable peptide inhibitors of the JNK signal transduction pathway for the treatment of various diseases” (Xigen Inflammation Ltd., priority 2008, dated 2015).
Entries after “also recorded” stand apart in the source; their conditions may differ.

Assays:
[1] = system: TC-3 cells; experiment: IL-1 induced pancreatic beta-cell death, peptide treatment; assay type: cell-based; details: one single addition 1 μM, 15 days of incubation with IL-1
Protocol: Inhibition of IL-1 induced pancreatic beta-cell death by the D-TAT-IB1(s) peptide was analyzed. TC-3 cells were incubated as described above for 30 minutes with one single addition of the indicated peptides (1, μM), then IL-1 (10 ng/ml) was added.
Apoptotic cells were then counted after two days of incubation with IL-1 by use of Propidium Iodide and Hoechst 33342 nuclear staining. A minimum of 1,000 cells were counted for each experiment. Standard Error of the Means (SEM) are indicated, n=5.
Long term inhibition of IL-1P induced cell-death by the D-TAT-IB1 peptide was also analyzed. TC-3 cells were incubated as above for 30 minutes with one single addition of the indicated peptides (1 μM), then IL-1 (10 ng/ml) was added, followed by addition of the cytokine every two days. Apoptotic cells were then counted after 15 days of incubation with IL-1 by use of propidium iodide and Hoechst 33342 nuclear staining. […] A minimum of 1.000 cells were counted for each experiment.

[2] = system: murine T cells; experiment: PMA & ionomycin-induced cytokine production in murine T cells; assay type: cell-based
[3] = system: Aβ1-40 and Aβ1-42; experiment: Aβ1-40 and Aβ1-42 ELISA in brain homogenate fractions and CSF of hAPP Tg mice; assay type: in vivo
Protocol: iv) Treatment • Forty female hAPP transgenic mice were treated with either 0.1 mg/kg b.w./every two weeks or 10 mg/kg b.w./every three weeks of the test substance XG-102 (SEQ ID NO: 11) in two different dosages (n=12/group) or treated with the vehicle (n=12) s.c. once every three weeks over four months.
vi) Tissue Sampling • At the end of the treatment period, and following all behavioral testing, all remaining mice (n=28) were sacrificed. Therefore, all mice were sedated by standard inhalation anesthesia (Isofluran, Baxter) as described in SOP MET030. Cerebrospinal fluid (CSF) was obtained by blunt dissection and exposure of the foramen magnum. Upon exposure, a Pasteur pipette was inserted to the approximate depth of 0.3-1 mm into the foramen magnum. CSF was collected by suctioning and capillary action until flow fully ceases. Two aliquots of each sample were immediately frozen and kept at −80° C. until ready for further analysis with ELISA technique. After CSF sampling, each mouse was placed in dorsal recumbence, thorax was opened and a 26-gauge needle attached to a 1 cc syringe was inserted into the right cardiac ventricular chamber. Light suction was applied to the needle and blood was collected into EDTA and consequently used to obtain plasma. To get plasma, blood samples from each mouse were spun at 1,750 rpm (700 g) for 10 minutes in a centrifuge (GS-6R Beckman) using a rotor with swing buckets (GH—3.8 Beckman). Plasma was frozen and stored at −20° C. until further analysis. After blood sampling transgenic mice were intracardially perfused with 0.9% sodium chloride. Brains were rapidly removed the cerebellum was cut off. The right hemispheres of all mice were immersion fixed in freshly produced 4% Paraformaldehyde/PBS (pH 7.4) for one hour at room temperature. Thereafter brains were transferred to a 15% sucrose PBS solution for 24 hours to ensure cryoprotection. […]
vii) Determination of Aβ1-40 and Aβ1-42 • In four different brain homogenate fractions of each Tg mouse as well as in CSF samples the Aβ1-40 and Aβ1-42 levels were evaluated with ELISA technique. […]

SMILES: CC(C)C[C@@H](NC(=O)[C@@H](Cc1ccccc1)NC(=O)[C@H]1CCCN1C(=O)[C@@H](CCC(N)=O)NC(=O)[C@H](NC(=O)[C@H]1CCCN1C(=O)[C@@H](CCCNC(=N)N)NC(=O)[C@@H](CO)NC(=O)[C@@H](CCC(N)=O)NC(=O)[C@H](N)CC(=O)O)C(C)C)C(=O)N[C@H](CC(N)=O)C(=O)N[C@H](CC(C)C)C(=O)N[C@@H](C(=O)N[C@@H](C(=O)N1CCC[C@@H]1C(=O)N[C@H](CCCNC(=N)N)C(=O)N[C@H](CCCCN)C(=O)N1CCC[C@@H]1C(=O)N[C@H](CCCNC(=N)N)C(=O)N1CCC[C@@H]1C(=O)N1CCC[C@@H]1C(=O)N[C@H](CCCNC(=N)N)C(=O)N[C@H](CCCNC(=N)N)C(=O)N[C@H](CCCNC(=N)N)C(=O)N[C@H](CCC(N)=O)C(=O)N[C@H](CCCNC(=N)N)C(=O)N[C@H](CCCNC(=N)N)C(=O)N[C@H](CCCCN)C(=O)N[C@H](CCCCN)C(=O)N[C@H](CCCNC(=N)N)C(=O)NCC(=O)O)[C@H](C)O)[C@H](C)O [XG-102]
- long term protection from IL-1 induced cell death [1]: able to confer long term (15 day) protection
- PMA & ionomycin-induced TNFa and IFNg production [2]: also inhibits cytokine release in primary lymphoid and myeloid cells
- brain homogenate Aβ1-40 levels ([3]; both dosages): did not affect brain homogenate Aβ1-40 levels
- CSF Aβ1-40 and Aβ1-42 levels ([3]; both dosages, p<0.01 10 mg/kg, <0.05 low dosage): a significant decrease of Aβ1-40 and Aβ1-42 in CSF; also recorded: significantly decreased in CSF compared to vehicle group
- Aβ1-42 level in Triton X-100 fraction ([3]; low dose 0.1 mg/kg, p<0.05 vs vehicle): a significant reduction compared to the vehicle group
